Source: patent EP4752152A1, “STEROID COMPOUND, AND PREPARATION METHOD THEREFOR AND USE THEREOF” (Cholesgen (Shanghai) Co.Ltd., priority 2023, dated 2025)

Tested on: SREBP pathway
Assay: SREBP luciferase reporter gene system (SRE-luciferase assay)
Assay type: cell-based, human
Settings: Homo sapiens, Huh-7, 16 h, Huh-7/SRE-luc cells, sterol-deficient medium, 0.01-10 µM
Procedure, shortened: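 Huh-7 cells stably carrying LDLR promoter-luciferase plus GFP were treated 16 h in sterol-deficient medium (5% lipoprotein-deficient serum, 2 µM lovastatin, 10 µM mevalonic acid) at 0.01–10 µM. Luciferase/GFP ratio measured as pathway activity; inhibition versus DMSO fitted to a four-parameter model for IC50.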

SMILES | IC50
COc1ccnc(F)c1C(O)CCC[C@@H](C)[C@H]1CC[C@H]2[C@H]3[C@H](CC[C@]12C)[C@@]1(C)CC[C@H](O)[C@H](O)[C@@H]1CC3(F)F (stereo partly drawn) [Compound 149, (1R,3aS,3bS,5aR,6R,7S,9aR,9bS,11aR)-4,4-difluoro-1-[(2R)-6-(2-fluoro-4-methoxypyridin-3-yl)-6-hydroxyhexan-2-yl]-9a,11a-dimethylhexadecahydro-1H-cyclopenta[1,2-a]phenanthrene-6,7-diol] | 0.14 µM
COc1ccnc(F)c1C(O)CCC[C@@H](C)[C@H]1CC[C@H]2C3=C(F)C[C@H]4[C@@H](O)[C@@H](O)CC[C@]4(C)[C@H]3CC[C@]12C (stereo partly drawn) [Compound 150, (1R,3aR,5aR,6R,7S,9aR,9bR,11aR)-4-fluoro-1-[(2R)-6-(2-fluoro-4-methoxypyridin-3-yl)-6-hydroxyhexan-2-yl]-9a,11a-dimethyl-2,3,3a,5,5a,6,7,8,9,9a,9b,10,11,11a-tetradecahydro-1H-cyclopenta[1,2-a]phenanthrene-6,7-diol] | 0.19 µM
COc1ncc(F)cc1C(O)CCC[C@@H](C)[C@H]1CC[C@H]2[C@H]3[C@H](CC[C@]12C)[C@@]1(C)CC[C@H](O)[C@H](O)[C@@H]1CC3(F)F (stereo partly drawn) [Compound 151, (1R,3aS,3bS,5aR,6R,7S,9aR,9bS,11aR)-4,4-difluoro-1-[(2R)-6-(5-fluoro-2-methoxypyridin-3-yl)-6-hydroxyhexan-2-yl]-9a,11a-dimethylhexadecahydro-1H-cyclopenta[1,2-a]phenanthrene-6,7-diol] | 0.18 µM
COc1ncncc1C(O)CCC[C@@H](C)[C@H]1CC[C@H]2[C@H]3[C@H](CC[C@]12C)[C@@]1(C)CC[C@H](O)[C@H](O)[C@@H]1CC3(F)F (stereo partly drawn) [Compound 152, (1R,3aS,3bS,5aR,6R,7S,9aR,9bS,11aR)-4,4-difluoro-1-[(2R)-6-hydroxy-6-(4-methoxypyrimidin-5-yl)hexan-2-yl]-9a,11a-dimethylhexadecahydro-1H-cyclopenta[1,2-a]phenanthrene-6,7-diol] | 0.14 µM
COc1nccnc1[C@H](O)CCC[C@@H](C)[C@H]1CC[C@H]2[C@H]3[C@H](CC[C@]12C)[C@@]1(C)CC[C@H](O)[C@H](O)[C@@H]1CC3(F)F [Compound 154, (1R,3aS,3bS,5aR,6R,7S,9aR,9bS,11aR)-4,4-difluoro-1-[(2R,6R)-6-hydroxy-6-(3-methoxypyrazin-2-yl)hexan-2-yl]-9a,11a-dimethylhexadecahydro-1H-cyclopenta[1,2-a]phenanthrene-6,7-diol] | 0.242 µM
COc1nccnc1[C@@H](O)CCC[C@@H](C)[C@H]1CC[C@H]2[C@H]3[C@H](CC[C@]12C)[C@@]1(C)CC[C@H](O)[C@H](O)[C@@H]1CC3(F)F [Compound 155, (1R,3aS,3bS,5aR,6R,7S,9aR,9bS,11aR)-4,4-difluoro-1-[(2R,6S)-6-hydroxy-6-(3-methoxypyrazin-2-yl)hexan-2-yl]-9a,11a-dimethylhexadecahydro-1H-cyclopenta[1,2-a]phenanthrene-6,7-diol] | 0.188 µM
COc1cc(F)ccc1C(N)CCC[C@@H](C)[C@H]1CC[C@H]2[C@H]3[C@H](CC[C@]12C)[C@@]1(C)CC[C@H](O)[C@H](O)[C@@H]1CC3(F)F (stereo partly drawn) [Compound 156, (1R,3aS,3bS,5aR,6R,7S,9aR,9bS,11aR)-1-[(2R)-6-amino-6-(4-fluoro-2-methoxyphenyl)hexan-2-yl]-4,4-difluoro-9a,11a-dimethylhexadecahydro-1H-cyclopenta[1,2-a]phenanthrene-6,7-diol] | 1.32 µM
COc1cc(F)ccc1/C(CCC[C@@H](C)[C@H]1CC[C@H]2[C@H]3[C@H](CC[C@]12C)[C@@]1(C)CC[C@H](O)[C@H](O)[C@@H]1CC3(F)F)=N/O [Compound 157, [(1E,5R)-5-[(1R,3aS,3bS,5aR,6R,7S,9aR,9bS,11aR)-4,4-difluoro-6,7-dihydroxy-9a,11a-dimethylhexadecahydro-1H-cyclopenta[1,2-a]phenanthren-1-yl]-1-(4-fluoro-2-methoxyphenyl)hexylidene]hydroxylamine] | 0.053 µM
C[C@H](CCCC(O)c1c(F)cccc1F)[C@H]1CC[C@H]2[C@H]3[C@H](CC[C@]12C)[C@@]1(C)CC[C@H](O)[C@H](O)[C@@H]1CC3(F)F (stereo partly drawn) [Compound 161, (1R,3aS,3bS,5aR,6R,7 S,9aR,9bS,11aR)-1-[(2R)-6-(2,6-Difluorophenyl)-6-hydroxyhexan-2-yl]-4,4-difluoro-9a,11a-dimethylhexadecahyd ro-1H-cyclopenta[1,2-a]phenanthrene-6,7-diol] | 0.1 µM
COc1ccc(F)cc1[C@@H](O)CCC[C@@H](C)[C@H]1CC[C@H]2[C@H]3[C@H](CC[C@]12C)[C@@]1(C)CC[C@H](O)[C@H](O)[C@@H]1CC3(F)F [Compound 168, (1R,3aS,3bS,5aR,6R,7S,9aR,9bS,11aR)-4,4-difluoro-1-[(2R,6S)-6-(5-fluoro-2-methoxyphenyl)-6-hydroxyhexan-2-yl]-9a,11a-dimethylhexadecahydro-1H-cyclopenta[1,2-a]phenanthrene-6,7-diol] | 0.092 µM
COc1ccc(F)cc1[C@H](O)CCC[C@@H](C)[C@H]1CC[C@H]2[C@H]3[C@H](CC[C@]12C)[C@@]1(C)CC[C@H](O)[C@H](O)[C@@H]1CC3(F)F [Compound 169, (1R,3aS,3bS,5aR,6R,7S,9aR,9bS,11aR)-4,4-difluoro-1-[(2R,6R)-6-(5-fluoro-2-methoxyphenyl)-6-hydroxyhexan-2-yl]-9a,11a-dimethylhexadecahydro-1H-cyclopenta[1,2-a]phenanthrene-6,7-diol] | 0.075 µM
COc1ccc(F)c(C(O)CCC[C@@H](C)[C@H]2CC[C@H]3C4=C(F)C[C@H]5[C@@H](O)[C@@H](O)CC[C@]5(C)[C@H]4CC[C@]23C)c1 (stereo partly drawn) [Compound 174, (1R,3aR,5aR,6R,7S,9aR,9bR,11aR)-4-fluoro-1-[(2R)-6-(2-fluoro-5-methoxyphenyl)-6-hydroxyhexan-2-yl]-9a,11a-dimethyl-2,3,3a,5,5a,6,7,8,9,9a,9b,10,11,11a-tetradecahydro-1H-cyclopenta[1,2-a]phenanthrene-6,7-diol] | 0.148 µM
COc1cc(F)c(C(O)CCC[C@@H](C)[C@H]2CC[C@H]3[C@H]4[C@H](CC[C@]23C)[C@@]2(C)CC[C@H](O)[C@H](O)[C@@H]2CC4(F)F)c(OC)c1 (stereo partly drawn) [Compound 182, (1R,3aS,3bS,5aR,6R,7 S,9aR,9bS,11aR)-4,4-Difluoro-1-[(2R)-6-(2-fluoro-4,6-dimethoxyphenyl)-6-hydroxyhexan-2-yl]-9a,11a-dimethylhexadecahydro-1H-cyclopenta[1,2-a]phenanthrene-6,7-diol] | 0.121 µM
COc1ccc(C(O)CCC[C@@H](C)[C@H]2CC[C@H]3[C@H]4[C@H](CC[C@]23C)[C@@]2(C)CC[C@H](O)[C@H](O)[C@@H]2CC4(F)F)c(OC)c1 (stereo partly drawn) [Compound 183, (1R,3aS,3bS,5aR,6R,7 S,9aR,9bS,11aR)-1-[(2R)-6-(2,4-Dimethoxyphenyl)-6-hydroxyhexan-2-yl]-4,4-difluoro-9a,11a-dimethylhexadecahydro-1H-cyclopenta[1,2-a]phenanthrene-6,7-diol] | 0.141 µM
C[C@H](CCCC(O)c1cccc2cnn(C)c12)[C@H]1CC[C@H]2[C@H]3[C@H](CC[C@]12C)[C@@]1(C)CC[C@H](O)[C@H](O)[C@@H]1CC3(F)F (stereo partly drawn) [Compound 207, (1R,3aS,3bS,5aR,6R,7 S,9aR,9bS,11aR)-4,4-Difluoro-1-[(2R)-6-hydroxy-6-(1-methylindazol-7-yl)hexan-2-yl]-9a,11a-dimethylhexadecahydro-1H-cyclopenta[1,2-a]phenanthrene-6,7-diol] | 0.206 µM
